Data from patent publication US20050064485A1, “Multiplex binding and activity assays” (priority 2003, published 2005).

Columns and labels:
[1] = target: T1, Epidermal Growth Factor Receptor (EGFR) Tyrosine Kinase (Homo sapiens, UniProt P00533); assay: EGFR kinase multiplex FP/TR-RET library screen and follow-up titration; assay type: biochemical; settings: two-fold dilution series
T1 construct: purchased PanVera, Madison Wis; P2628

[2] = Precipitation of poorly correlating compounds in the EGFR kinase assay; assay type: physicochemical; settings: EGFR kinase assay conditions
[3] = target: PTK labeled tracer F-ADE(pY)LIPQQS; assay: FP direct binding, antibody titrated (10 nM to 9.8 pM) against 1 nM tracer

T1 sequence (P00533 25-1210, species assumed): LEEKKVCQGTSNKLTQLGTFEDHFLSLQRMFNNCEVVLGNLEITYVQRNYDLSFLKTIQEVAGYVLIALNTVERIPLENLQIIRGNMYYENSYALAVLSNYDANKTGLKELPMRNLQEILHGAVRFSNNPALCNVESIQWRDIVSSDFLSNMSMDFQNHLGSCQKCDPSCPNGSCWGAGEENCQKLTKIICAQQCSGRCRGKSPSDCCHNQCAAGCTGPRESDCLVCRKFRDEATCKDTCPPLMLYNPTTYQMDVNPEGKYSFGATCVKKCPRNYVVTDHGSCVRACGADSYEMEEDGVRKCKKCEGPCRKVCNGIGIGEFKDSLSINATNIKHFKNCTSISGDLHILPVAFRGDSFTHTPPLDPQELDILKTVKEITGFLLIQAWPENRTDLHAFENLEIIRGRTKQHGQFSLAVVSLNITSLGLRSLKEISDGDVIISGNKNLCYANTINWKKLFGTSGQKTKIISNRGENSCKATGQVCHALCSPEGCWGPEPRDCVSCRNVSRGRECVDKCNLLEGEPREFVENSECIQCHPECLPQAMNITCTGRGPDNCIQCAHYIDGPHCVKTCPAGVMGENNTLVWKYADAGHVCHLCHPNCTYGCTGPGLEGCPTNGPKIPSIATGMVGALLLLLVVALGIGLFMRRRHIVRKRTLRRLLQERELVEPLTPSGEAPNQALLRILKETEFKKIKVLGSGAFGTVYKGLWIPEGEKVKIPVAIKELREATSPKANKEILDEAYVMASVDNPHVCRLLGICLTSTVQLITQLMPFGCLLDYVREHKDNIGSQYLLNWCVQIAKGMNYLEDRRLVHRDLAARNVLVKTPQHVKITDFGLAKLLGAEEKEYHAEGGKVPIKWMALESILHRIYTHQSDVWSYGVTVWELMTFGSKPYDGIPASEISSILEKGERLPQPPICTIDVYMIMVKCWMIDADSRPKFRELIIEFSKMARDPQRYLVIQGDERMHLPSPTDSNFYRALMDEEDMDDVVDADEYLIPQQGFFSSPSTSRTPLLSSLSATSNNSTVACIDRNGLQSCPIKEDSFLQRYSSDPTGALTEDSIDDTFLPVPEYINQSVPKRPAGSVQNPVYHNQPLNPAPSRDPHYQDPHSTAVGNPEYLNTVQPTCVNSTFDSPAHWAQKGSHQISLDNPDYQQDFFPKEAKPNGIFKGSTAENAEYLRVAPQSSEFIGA

Compound | inhibitor on re-assay [1] | precipitation in assay [2] | other results
NC(=O)c1cc(N2CC2)c([N+](=O)[O-])cc1[N+](=O)[O-] [CB-1954, CB 1954] | neither was seen to be an inhibitor | – | –
CC(C)[C@@]1(NC(=O)[C@@H]2C=C3c4cccc5[nH]cc(c45)C[C@H]3N(C)C2)O[C@@]2(O)[C@@H]3CCCN3C(=O)[C@H](Cc3ccccc3)N2C1=O [Ergocristine] | – | precipitate | –
O=C1Nc2ccc(I)cc2/C1=C/c1cc(Br)c(O)c(Br)c1 [GW5074] | – | precipitate | –
Oc1ccccc1O [Pyrocatechol] | neither was seen to be an inhibitor | – | –
Tb-chelate labeled PY72 (anti-phosphotyrosine) IgG antibody | – | – | EC50 [3]: 1 nM
